Measured values published in patent publication US4244965A, “Azetidinoyl ethers” (Beecham Group Limited, priority 1978, dated 1981).
In brackets after ≈: the same amount, converted by molar mass. Several values for one entry are separate records, joined by “and”; a condition that tells them apart may be missing. Identical values can stand only once. Like-named read-outs stand apart in the source and are kept apart here.

Tests used:
[1] = tested on: Staph Russell; assay: standard microliter MIC test (Demonstrations 3-5); assay type: cell-based; conditions: for MIC: alone
[2] = tested on: Kleb E 70; assay: standard microliter MIC test (Demonstrations 3-5); assay type: cell-based, Klebsiella
[3] = tested on: Proteus C 889; assay: standard microliter MIC test (Demonstrations 3-5); assay type: cell-based; conditions: for MIC (ampicillin + title compound): trailing end point; for MIC: alone
[4] = tested on: E. coli JT 39; assay: standard microliter MIC test (Demonstrations 3-5); assay type: cell-based; conditions: for MIC: alone
[5] = tested on: E. coli JT 410; assay: standard microliter MIC test (Demonstrations 3-5); assay type: cell-based
[6] = tested on: Escherichia coli JT39; assay: Amoxycillin with or without synergist, E. coli JT39 intraperitoneal infection of mice, subcutaneous (Demonstration 1a); assay type: in vivo, Escherichia coli (infected mice); conditions: JT39, sc, antibiotic alone, sub-cutaneous, 1 and 5 hours post infection, read-out: CD50 (the source's name)
Method: a. Sub-cutanvenous administration: Groups of mice were infected inter peritoneally with Escherichia coli JT39. At 1 and 5 hours post infection the mice were treated with amoxycillin (Amox.) or with amoxycillin and synergist. The solutions were made up in phosphate buffer.

[7] = tested on: Escherichia coli JT39; assay: Amoxycillin with or without synergist, E. coli JT39 intraperitoneal infection of mice, oral (Demonstration 1b); assay type: in vivo, Escherichia coli (infected mice); conditions: antibiotic alone, oral, 1, 3 and 5 hours post-infection, read-out: CD50 (the source's name)
Method: (§1) b. Oral administration: Groups of mice were infected inter peritoneally with Escherichia coli JT39. At 1, 3 and 5 hours post-infection the mice were treated with amoxycillin or with amoxycillin and synergist. The solutions were made up in phosphate buffer.

[8] = tested on: Escherichia coli JT 39; assay: intra peritoneal infection due to Escherichia coli JT 39 in mice, subcutaneous dosing (Demonstration 2b); assay type: in vivo, Escherichia coli (infected mice); conditions: for ED50: Escherichia coli, JT39, sc, alone, × 2, sub-cutaneous, 1 and 5 hours post infection, read-out: C50
Method: b. […] Dosing was sub-cutaneous and 1 and 5 hours post infection.

[9] = tested on: Staph. aureus Russell; assay: standard MIC test (Demonstration 1c); assay type: cell-based; conditions: Staphylococcus aureus
[10] = tested on: Escherichia coli JT39; assay: standard MIC test (Demonstration 1c); assay type: cell-based
[11] = tested on: E. coli JT 39; assay: conventional microliter method, MIC (Demonstration 2a); assay type: cell-based; conditions: Escherichia coli, JT39
Method: (§2) a. The antibacterial and synergistic activity of the title compound (referred to as "Sunergist" in the Table) was determined by a conventional microliter method.

[12] = tested on: Proteus C 889; assay: as above; assay type: cell-based
Method: as §2

[13] = tested on: Pseudomonas Dalgleish; assay: microbe, parasite or virus in culture; assay type: cell-based
Method: as §2

[14] = tested on: Klebsiella E70; assay: standard MIC test (Demonstration 1c); assay type: cell-based; conditions: alone
[15] = Signs of drug toxicity during the in-vivo tests (Demonstration 1); conditions: mice
Method: (§3) a. Sub-cutanvenous administration: Groups of mice were infected inter peritoneally with Escherichia coli JT39. At 1 and 5 hours post infection the mice were treated with amoxycillin (Amox.) or with amoxycillin and synergist. The solutions were made up in phosphate buffer. The results were as follows:
as §1

[16] = tested on: gram negative bacteria such as Escherichia and Klebsiella and gram positive bacteria such as Staphylococcus; assay: Summary of the synergy tests with penicillins (Demonstration 1d); conditions: summary of preceding tests
Method: as §3, §1

[17] = tested on: E. coli JT 410; assay: conventional microliter method, MIC (Demonstration 2a); assay type: cell-based; conditions: Escherichia coli, JT410; alone
Method: as §2

[18] = tested on: Kleb. E 70; assay: as above; assay type: cell-based; conditions: Klebsiella; alone
Method: as §2

[19] = tested on: Staph. Russell; assay: as above; assay type: cell-based; conditions: alone
Method: as §2

[20] = Average blood levels after oral administration to dogs (Demonstration 6); assay type: in vivo; conditions: dog, 5 mg/kg
Method: (§4) Lithium 9-O-(azetidin-2'-on-4'-yl)clavulanate was administered orally to a group of eight dogs, weighing 9-12 kg, at a dosage of 5 mg/kg.
The level of the compound in the blood was measured after 0.25, 0.5, 1, 2, 4 and 6 hours. The results are shown in Table 1, with those for sodium clavulanate for comparison.

[21] = Urinary recovery after oral administration to dogs (Demonstration 6); assay type: in vivo; conditions: for dose excreted at 24 h: dog, urine, po, 5 mg/kg
Method: as §4
The urinary recovery of the compound over 24 hours was also measured.

[22] = Klebsiella, E70, alone, read-out: MIC
[23] = Escherichia coli, JT39, read-out: MIC
[24] = Escherichia coli, JT410, alone, read-out: MIC

NCC(=O)NCCOCC=C1OC2CC(=O)N2C1C(=O)O (centres unmarked) [9-O-[(N-Glycyl)-2-aminoethyl]clavulanic acid]
MIC (ampicillin + title compound) ([1]; Amp. + 1 μg/ml of title comp.): 1.25 µg/mL
MIC (ampicillin + title compound) ([1]; Amp. + 5 μg/ml of title comp.): 0.15 µg/mL
MIC [1]: 8 µg/mL (≈ 26.7 µM)
MIC (ampicillin + title compound) ([2]; Amp. + 1 μg/ml of title comp.): 6.25 µg/mL
MIC (ampicillin + title compound) ([2]; Amp. + 5 μg/ml of title comp.): 1.5 µg/mL
MIC ([2]; alone): 62.5 µg/mL (≈ 209 µM)
MIC (ampicillin + title compound) ([3]; Amp. + 1 μg/ml of title comp.): 8 µg/mL
MIC (ampicillin + title compound) ([3]; Amp. + 5 μg/ml of title comp.): 2 µg/mL
MIC [3]: 250 µg/mL (≈ 835 µM)
MIC (ampicillin + title compound) ([4]; Amp. + 1 μg/ml of title comp.): 31.2 µg/mL
MIC (ampicillin + title compound) ([4]; Amp. + 5 μg/ml of title comp.): 8 µg/mL
MIC [4]: 31.2 µg/mL (≈ 104 µM)
MIC (ampicillin + title compound) ([5]; Amp. + 5 μg/ml of title comp.): 62.5 µg/mL
MIC ([5]; alone): 62.5 µg/mL (≈ 209 µM)

CC1(C)S[C@@H]2[C@H](NC(=O)[C@H](N)c3ccc(O)cc3)C(=O)N2[C@H]1C(=O)O [Amoxycillin, amoxycillin]
ED50 [6]: > 1000 mg/kg
ED50 [7]: > 1000 mg/kg
ED50 [8]: > 1000 mg/kg

CC1(C)S[C@@H]2[C@H](NC(=O)[C@H](N)c3ccccc3)C(=O)N2[C@H]1C(=O)O [Ampicillin, ampicillin, reference compound]
MIC [9]: 62 µg/mL (≈ 177 µM)
MIC [10]: 2000 µg/mL (≈ 5720 µM)
MIC [11]: 2000 µg/mL
MIC [12]: 1000 µg/mL
MIC [13]: > 2000 µg/mL
MIC ([2]; Klebsiella, E70): 1000 µg/mL (≈ 2860 µM)
MIC ([2]; Klebsiella, E70, alone): 500 µg/mL (≈ 1430 µM)
MIC [3]: 2000 µg/mL and > 2000 µg/mL
MIC ([4]; Escherichia coli, JT39): 2000 µg/mL (≈ 5720 µM)
MIC [4]: 1000 µg/mL (≈ 2860 µM)
MIC ([5]; Escherichia coli, JT410): 250 µg/mL (≈ 715 µM)

Cc1nnc(SCC2=C(C(=O)O)N3C(=O)[C@@H](NC(=O)Cn4cnnn4)[C@H]3SC2)s1 [Cefazolin]
ED50 [8]: 13 mg/kg

O=C1CC(OC/C=C2\O[C@@H]3CC(=O)N3[C@H]2C(=O)O)N1 (some centres unmarked) [Example 2, Sodium 9-O-(azetidin-2'-on-4'-yl)clavulanate]
MIC ([9]; alone, read-out: MIC): 8 µg/mL
MIC [14]: 31.2 µg/mL
MIC ([10]; alone, read-out: MIC): 31.2 µg/mL
signs of drug toxicity [15]: No signs of drug toxicity were observed
synergism with penicillins such as amoxycillin [16]: effective synergist for penicillins such as amoxycillin

CC(NC=O)OC/C=C1\O[C@@H]2CC(=O)N2[C@H]1C(=O)O (some centres unmarked) [Example 9, Lithium 9-O-(1-formamidoethyl)clavulanate]
MIC ([11]; alone, read-out: MIC): 62.5 µg/mL
MIC [17]: 31.2 µg/mL
MIC [18]: 62.5 µg/mL
MIC ([12]; alone, read-out: MIC): 62.5 µg/mL
MIC [19]: 8 µg/mL
MIC [13]: > 500 µg/mL
effect on the effectiveness of amoxycillin ([8]; with amoxycillin, sub-cutaneous): enhance the effectiveness of amoxycillin

N[C@@H]1C(=O)N[C@H]1OC/C=C1\O[C@@H]2CC(=O)N2[C@H]1C(=O)O [Example 13, 9-O-[(3S,4S)-2'-Oxo-3'-aminoazetidin-4'-yl]clavulanic acid]
MIC ([1]; read-out: MIC): 62.5 µg/mL (≈ 221 µM)
MIC [2, 22]: 62.5 µg/mL (≈ 221 µM)
MIC ([3]; read-out: MIC): 62.5 µg/mL (≈ 221 µM)
MIC [4, 23]: 62.5 µg/mL (≈ 221 µM)
MIC [5, 24]: 62.5 µg/mL (≈ 221 µM)

N[C@@H]1C(=O)N[C@@H]1OC/C=C1\O[C@@H]2CC(=O)N2[C@H]1C(=O)O [Example 14, 9-O-[(3S,4R)-2'-Oxo-3'-aminoazetidin-4'-yl]-clavulanic acid]
MIC ([1]; read-out: MIC): 62.5 µg/mL (≈ 221 µM)
MIC [2, 22]: 62.5 µg/mL (≈ 221 µM)
MIC ([3]; read-out: MIC): 62.5 µg/mL (≈ 221 µM)
MIC [4, 23]: 31.2 µg/mL (≈ 110 µM)
MIC [5, 24]: 62.5 µg/mL (≈ 221 µM)

O=C1CC(OC/C=C2\O[C@@H]3CC(=O)N3[C@H]2C(=O)O)N1 (some centres unmarked) [Example 27, Lithium 9-O-(2'-oxoazetidin-4'-yl)-clavulanate]
concentration at 0.25 h [20]: 1450 ng/mL
concentration at 0.5 h [20]: 3640 ng/mL
concentration at 1 h [20]: 4780 ng/mL
concentration at 2 h [20]: 3790 ng/mL
concentration at 4 h [20]: 710 ng/mL
concentration at 6 h ([20]; 6 hours): < 200 ng/mL
Urinary Recovery ([21]; 0-6 hour, Dog No. 1, 5 mg/kg): 10.8 mg
Urinary Recovery ([21]; 0-6 hour, Dog No. 2, 5 mg/kg): 14.8 mg
Urinary Recovery ([21]; 0-6 hour, Dog No. 3, 5 mg/kg): 13.1 mg
Urinary Recovery ([21]; 0-6 hour, Dog No. 4, 5 mg/kg): 29.5 mg
Urinary Recovery ([21]; 0-6 hour, Dog No. 5, 5 mg/kg): 18.5 mg
Urinary Recovery ([21]; 0-6 hour, Dog No. 6, 5 mg/kg): 9.2 mg
Urinary Recovery ([21]; 0-6 hour, Dog No. 7, 5 mg/kg): 9.25 mg
Urinary Recovery ([21]; 0-6 hour, Dog No. 8, 5 mg/kg): 12.15 mg
Urinary Recovery ([21]; 0-24 hour, Dog No. 1, 5 mg/kg): 11.7 mg
Urinary Recovery ([21]; 0-24 hour, Dog No. 2, 5 mg/kg): 17.4 mg
Urinary Recovery ([21]; 0-24 hour, Dog No. 3, 5 mg/kg): 18.8 mg
Urinary Recovery ([21]; 0-24 hour, Dog No. 4, 5 mg/kg): 29.9 mg
Urinary Recovery ([21]; 0-24 hour, Dog No. 5, 5 mg/kg): 19.6 mg
Urinary Recovery ([21]; 0-24 hour, Dog No. 6, 5 mg/kg): 10.3 mg
Urinary Recovery ([21]; 0-24 hour, Dog No. 7, 5 mg/kg): 11.1 mg
Urinary Recovery ([21]; 0-24 hour, Dog No. 8, 5 mg/kg): 12.3 mg
dose excreted at 24 h ([21]; Dog No. 1, read-out: Urinary Recovery, % over 24 hour): 20.1%
dose excreted at 24 h ([21]; Dog No. 2, read-out: Urinary Recovery, % over 24 hour): 38.6%
dose excreted at 24 h ([21]; Dog No. 3, read-out: Urinary Recovery, % over 24 hour): 32.1%
dose excreted at 24 h ([21]; Dog No. 4, read-out: Urinary Recovery, % over 24 hour): 52.4%
dose excreted at 24 h ([21]; Dog No. 5, read-out: Urinary Recovery, % over 24 hour): 37.3%
dose excreted at 24 h ([21]; Dog No. 6, read-out: Urinary Recovery, % over 24 hour): 17.2%
dose excreted at 24 h ([21]; Dog No. 7, read-out: Urinary Recovery, % over 24 hour): 19.1%
dose excreted at 24 h ([21]; Dog No. 8, read-out: Urinary Recovery, % over 24 hour): 19.5%

O=C(O)[C@H]1/C(=C/CO)O[C@@H]2CC(=O)N21 [sodium clavulanate, reference compound]
concentration at 0.25 h [20]: 960 ng/mL
concentration at 0.5 h [20]: 3110 ng/mL
concentration at 1 h [20]: 2910 ng/mL
concentration at 2 h [20]: 1680 ng/mL
concentration at 4 h [20]: 280 ng/mL
